# Laboratory results published in patent US20050165104A1, “Biocidal agents and veterinary methods” (priority 2002, published 2005).
# Like-named read-outs stand apart in the source and are kept apart here. Marks after values point to notes of the source that are not given here.
# Key:
# Aspergillus fumigatus = assay: Antimicrobial Diffusion Test (blood agar plate, zone of inhibition); type: cell-based
# Method: (§1) The Antimicrobial Diffusion Test is used to determine the ability of a compound to inhibit growth of an organism. During the course of the test, each compound is treated as an unknown solution with an assigned number. After the data have been collected, the identity of the compound is assigned. In the test, a blood agar plate is inoculated with a known stock organism (fungus or bacteria). One drop of a numbered solution is applied to a freshly inoculated agar plate. A single numbered solution is applied per organism on a plate. The inoculated plate is examined on a daily basis for growth of the organism.
# (§2) Areas of no microbial growth, or zones of inhibition are measured in millimeters and documented. If the plate is entirely covered with organism growth, there is no measurable zone of inhibition. After all zones of inhibition with the corresponding organisms and the solution number tested for sensitivity have been documented, each solution number is replaced by the correct solution name. The zones of inhibition are then used to establish relative in vitro resistance and sensitivity of the organism to the solution.
# Beta Streptococcus = assay: as above; type: cell-based; details: for zone of inhibition at 10000 µM / zone of inhibition at 100000 µM: Streptococcus, read-out: Inhibition, Beta Strep (zone of inhibition / relative potency); for zone of inhibition at 10000 µM: 0.01M (extracts: 0.01M total components)
# Method: as §1, §2
# Candida albicans = assay: as above; type: cell-based
# Method: as §1, §2
# Escherichia coli = assay: as above; type: cell-based
# Method: as §1, §2
# Staphylococcus aureus = assay: as above; type: cell-based
# Method: as §1, §2
# Trichophyton rubrum = assay: as above; type: cell-based
# Method: as §1, §2
# [1] = pH of the tested solution; type: physicochemical
# [2] = test system: Candida albicans, Staphylococcus aureus, Beta Streptococcus, Escherichia coli, Aspergillus fumigatus, and Trichophyton rubrum; assay: Antimicrobial Diffusion Test, all organisms tested; type: cell-based; details: for specificity of inhibitory activities over the organisms tested (in words): summary of Table 1
# Method: as §1, §2
# Table 1 provides data comparing the efficacy of a number of different antimicrobial compounds of the present invention. Compounds were assayed at varying concentrations using the Antimicrobial Diffusion Test described above. Summary for data on the following compounds is listed: 3-n-propylphenol, 3-pentylphenol, 5-propylresorcinol, 3-isobutylphenol, 4-hexylresorcinol, phenol, phenylacetic acid, 3-hydroxoctanoic acid, a reconstituted metapleural gland secretion from Atta sexdens worker ant, a reconstituted metapleural gland secretion from Atta sexdens soldier ant, a reconstituted metapleural gland secretion from Atta cephalotes worker ant, a reconstituted metapleural gland secretion from Atta cephalotes soldier ant, metapleural gland secretion from C. deformis, Mycocide, Tineacide, and Penlac. […]
# [3] = 0.1M (extracts: 0.1M total components)
# [4] = 0.01M (extracts: 0.01M total components)
# [5] = 0.1M (extracts: 0.1M total components), higher number = greater inhibition
# [6] = 0.01M, value marked * (footnote not given)
# [7] = 0.1M, value marked * (footnote not given)
# [8] = test solution 0.01M (extracts: 0.01M total components)
# [9] = test solution 0.1M (extracts: 0.1M total components)
# [10] = 0.1M (extracts: 0.1M total components), value marked ** (footnote not given)
# [11] = 0.1M (extracts: 0.1M total components), value unmarked
Compound,"Inhibition, Asp fumigatus (zone of inhibition / relative potency) (Aspergillus fumigatus; [3]) [mm]",zone of inhibition at 10000 µM (Beta Streptococcus) [mm],zone of inhibition at 100000 µM (Beta Streptococcus; [3]) [mm],"Inhibition, Candida Albicans (zone of inhibition / relative potency) (Candida albicans; [4]) [mm]","Inhibition, Candida Albicans (zone of inhibition / relative potency) (Candida albicans; [5]) [mm]","Inhibition, E. coli (zone of inhibition / relative potency) (Escherichia coli; [3]) [mm]","Inhibition, Staph aureus (zone of inhibition / relative potency) (Staphylococcus aureus; [3]) [mm]","Inhibition, T. rubrum (zone of inhibition / relative potency) (Trichophyton rubrum; [6])","Inhibition, T. rubrum (zone of inhibition / relative potency) (Trichophyton rubrum; [7])","pH [1, 8]","pH [1, 9]",also measured
CCCCCCc1ccc(O)cc1O [4-hexylresorcinol],20,16,17,19,20,15,15,29* mm,38* mm,6.5,6.5,"Inhibition, Asp fumigatus (zone of inhibition / relative potency) (Aspergillus fumigatus; 0.01M): 16 mm; Inhibition, E. coli (zone of inhibition / relative potency) (Escherichia coli; 0.01M): 17 mm; Inhibition, Staph aureus (zone of inhibition / relative potency) (Staphylococcus aureus; 0.01M): 16 mm"
CCCc1cc(O)cc(O)c1 [5-propylresorcinol],–,–,–,–,14,15,–,–,14* mm,–,6.5,zone of inhibition at 100000 µM (Beta Streptococcus): 14 mm
CCCCCc1cc(O)cc(O)c1 [5-pentylresorcinol],20,–,20,–,19,17,16,–,47* mm,–,6.5,–
O=C(O)Cc1c[nH]c2ccccc12 [indoleacetic acid],–,–,6,–,–,–,–,–,–,–,–,–
CCCc1cccc(O)c1 [3-n-propylphenol],10,–,15,13,13,17,14,12* mm,21 mm,6.5,6.5,"Inhibition, T. rubrum (zone of inhibition / relative potency) (Trichophyton rubrum; [10]): 14 mm; specificity of inhibitory activities over the organisms tested (in words) [2]: ability to inhibit growth of all organisms tested"
CCCCCCCC(O)CC(=O)O (centres unmarked) [3-hydroxydecanoic acid],13,12,11,–,15,13,12,–,–,6.5,6,"Inhibition, T. rubrum (zone of inhibition / relative potency) (Trichophyton rubrum; [11]): 12 mm"
CCCCCc1cccc(O)c1 [3-pentylphenol],25,15,18,15,21,15,18,16* mm,65 mm,6.5,6.5,"Inhibition, Asp fumigatus (zone of inhibition / relative potency) (Aspergillus fumigatus; 0.01M): 9 mm; inhibition of Aspergillus fumigatus growth (in words) (Aspergillus fumigatus; 0.1 M, FIG. 5): effective at inhibiting Aspergillus fumigatus growth; Inhibition, E. coli (zone of inhibition / relative potency) (Escherichia coli; 0.01M): 16 mm; Inhibition, Staph aureus (zone of inhibition / relative potency) (Staphylococcus aureus; 0.01M): 14 mm; Inhibition, T. rubrum (zone of inhibition / relative potency) (Trichophyton rubrum; [10]): 45 mm; side-by-side comparison against Penlac 0.1M on Trichophyton rubrum (in words) (Trichophyton rubrum; 0.1M each): unexpectedly superior; spectrum of effectiveness on the microorganisms tested (in words) ([2]; 0.1M, Table 1 row 3): exceptional broad spectrum effectiveness; specificity of inhibitory activities over the organisms tested (in words) [2]: ability to inhibit growth of all organisms tested"
CCCCCC(O)CC(=O)O (centres unmarked) [3-hydroxoctanoic acid],–,–,–,–,12,13,–,–,–,–,6,"Inhibition, Beta Strep (zone of inhibition / relative potency) (Beta Streptococcus; [3]): 12 mm"
CCCCCCCCCC(O)CC(=O)O (centres unmarked) [3-hydroxydodecanoic acid],7,–,10,–,8,10,9,–,–,6.5,6,"Inhibition, T. rubrum (zone of inhibition / relative potency) (Trichophyton rubrum; 0.01M, value unmarked): 10 mm; Inhibition, T. rubrum (zone of inhibition / relative potency) (Trichophyton rubrum; [11]): 14 mm"
